# From US20090149551A1 (priority 2007, published 2009)
# Read-outs that look alike come from different tables or passages of the source.
# What was measured:
# [1] = tested on: pooled human liver microsomes
# [2] = Stability in solution by HPLC analysis; format: physicochemical
# Protocol: 4b,5,6,7,8,8a-cis-Hexahydro-2-hydroxy-4b,8,8a-trimethylphenanthren-9,10-dione (OHCT). Spontaneous oxidation of HCT to OHCT was carried out in 100 mM phosphate buffer (pH 7.4) and 1.0 mM HCT in 10% acetonitrile. […]
# [3] = biological target: T1, recombinant human P450 3A4 (Homo sapiens, UniProt P08684); test: Vivid P450 3A4 activity assay with NADPH regenerating system; format: biochemical; settings: for decrease of P450 3A4 activity: 2 μM DBOMF
# T1 construct: purchased Invitrogen (Carlsbad, Calif.)
# T1 sequence (P08684 whole entry): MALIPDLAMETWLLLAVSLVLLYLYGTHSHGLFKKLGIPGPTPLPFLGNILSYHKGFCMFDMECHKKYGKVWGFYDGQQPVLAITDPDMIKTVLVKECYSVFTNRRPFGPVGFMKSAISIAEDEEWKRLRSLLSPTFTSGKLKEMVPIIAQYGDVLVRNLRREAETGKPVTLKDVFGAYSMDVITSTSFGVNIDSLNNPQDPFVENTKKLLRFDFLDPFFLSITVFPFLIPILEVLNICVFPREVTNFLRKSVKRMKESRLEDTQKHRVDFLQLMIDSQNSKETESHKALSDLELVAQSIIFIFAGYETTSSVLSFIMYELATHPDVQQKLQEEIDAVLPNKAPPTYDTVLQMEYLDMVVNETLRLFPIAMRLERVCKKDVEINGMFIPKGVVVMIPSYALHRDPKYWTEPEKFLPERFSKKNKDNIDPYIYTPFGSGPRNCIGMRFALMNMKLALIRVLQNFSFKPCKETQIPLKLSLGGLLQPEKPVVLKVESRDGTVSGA
# Protocol: (§1) The Vivid® P450 3A4 activity assay was carried out according to the manufacturer's protocol. Briefly, water (30 μL) and solutions of HCT (10 μL) were added to wells of a 96-well black plate. Master pre-mix solutions (50 μL) containing recombinant human P450 3A4 and rabbit NADPH P450 reductase were then added, and the resulting solutions were equilibrated at room temperature for 20 min. Finally, 10 μL of mixed NADP^+ and DBOMF substrate solutions were added, and the fluorescence intensity over time was recorded with a fluorometer at the excitation and emission wavelengths of 485 and 535 nm, respectively. The final concentrations were 100 mM phosphate buffer (pH 8.0), 3.3 mM glucose-6-phosphate, 0.3 unit/mL glucose-6-phosphate dehydrogenase, 1.0 mM NADP^+, 2 μM DBOMF and 5 nM P450 3A4 with 0.1% DMSO. Control experiments included no DBOMF as the background and 1 μM ketoconazole as the positive control. The rates of the P450 activity were obtained from the slope of the change of the fluorescent intensity over the initial 8 min.
# (§2) Enzyme and Cellular Studies with OHCT. The inhibitory effect of OHCT on P450 3A4 and the metabolic conversion of AFB1 with liver microsomes were studied similarly as described for HCT. […] The P450 activity was carried out similarly as described above with concentrations of DBOMF at 0.50, 0.67, 1.0, and 2.0 μM, respectively. The rates of the P450 activity were obtained as the slope of the change of the fluorescent intensity over the initial 4 min. The inhibitory constants of OHCT were obtained from the global best fit of the mixed inhibition model by GraphPad Prism (version 4.00, GraphPad Software, San Diego, Calif.).
# P. falciparum clone Dd2 = format: cell-based, Plasmodium falciparum
# Protocol: Cultures of Plasmodium falciparum.
# In vitro antiplasmodial activity: All solutions of chloroquine diphosphate, artemisinin (Sigma Aldrich), and OHCT were prepared in media RPMI 1640, ethanol and 0.1% DMSO, respectively. […] Parasite growth was estimated by microscopic observation of Giemsa-stained blood smears. All results presented are the means of at least three independent experiments.
# OHCT action on specific parasite life cycle stages: P. falciparum cultures were synchronized with 5% sorbitol and the Percoll-Sorbitol methods. Dilutions of OHCT, chloroquine, and artemisinin were prepared. To determine the in vitro efficacies of the three antimalarial drugs in culture, serial dilutions were prepared: for artemisinin, chloroquine and OHCT at 2, 4, 8, 16, 32 and 40 μM, respectively. After synchronization, the parasites were plated at the ring stage in 96-well plates. Each plate corresponded to one of the successive 6-h periods of the P. falciparum life cycle.
# [4] = tested on: human liver or lung cells; test: Toxicity to human liver or lung cells in culture
# [5] = Toxicity in mice receiving OHCT; settings: administration over four days, observed three months after administration
# human HepG2 cells [6] = format: cell-based; settings: for chemoprotection against AFB1 induced cytotoxicity: 2 μM AFB1, HepG2
# Protocol: The cell viability MTT assay on human HepG2 cells was carried out as previously reported. Briefly, HepG2 cells were seeded at 30,000 cells/well on a 96 well plate for 4 h before the treatment with AFB1 and OHCT or ketoconazole. After incubation for 72 h, the MTT assay was performed, followed by obtaining the absorbance of each well at 570 nm with a plate reader (μQuant, BioTek Instruments, Vt.). The statistical analyses (one-way ANOVA with Dunnett's test) were performed by GraphPad Prism.
# P450 1A/1B = settings: HepG2, co-treatment with TCDD; cited from earlier work
# human HepG2 cells [7] = settings: HepG2, co-treatment with AFB1; Zhou et al. 2006; cited from earlier work
# CYP3A4 (P450 3A4) = biological target: T2, CYP3A4 (P450 3A4) (Homo sapiens, UniProt P08684); test: Vivid P450 3A4 activity assay with NADPH regenerating system; format: biochemical; settings: human, recombinant human P450 3A4 with rabbit NADPH P450 reductase, pH 8, probe DBOMF 2 μM; 1 μM, 2 μM DBOMF; read-out: inhibition of the enzyme activity (P450 3A4)
# T2 construct: purchased Invitrogen (Carlsbad, Calif.)
# T2 sequence (P08684 whole entry): as above
# Protocol: as §1, §2
# [8] = mixed inhibition model, global best fit, substrate DBOMF
# [9] = 40 μM, 50 μM AFB1, NADPH regenerating system, 37° C. 90 min
compound,measurement,setting,value
"CC(C)CCC[C@@H](C)[C@H]1CC[C@H]2[C@@H]3CC=C4C[C@@H](O)CC[C@]4(C)[C@H]3CC[C@]12C [cholesterol, reference compound]",inhibitory effect on the metabolic conversion of AFB1 in liver microsomes,[1]; up to 100 μM,no inhibitory effect
"CC1CCCC2(C)c3ccc(O)cc3C(=O)C(=O)C12C (stereo not drawn) [OHCT, 4b,5,6,7,8,8a-cis-Hexahydro-2-hydroxy-4b,8,8a-trimethylphenanthren-9,10-dione]",stability under aqueous conditions,"[2]; 72 h at 37° C., HPLC",no degradation
same,decrease of P450 3A4 activity,[3]; 20 μM,50%
same,Ki (disassociation constant of enzyme inhibitor complex),[3]; [8],17.6 ± 5.6 µM
same,Ki′ (disassociation constant of enzyme-substrate inhibitor complex),[3]; [8],7.6 ± 1.5 µM
same,activity against the gametocyte forms of the parasite,P. falciparum clone Dd2; 2 μM,active
same,decrease of parasitemia,"P. falciparum clone Dd2; 16 μM, 8 h, clone Dd2",50%
same,killing of chloroquine resistant clone Dd2,"P. falciparum clone Dd2; 24 hr following treatment, concentration dependent",killed
same,"inhibition of early ring, trophozoite and schizont stages","P. falciparum clone Dd2; clone Dd2, 24 hr",equally inhibited
same,toxicity to human liver or lung cells in culture,[4],no toxicity
same,signs of toxicity in mice,[5],no signs of toxicity
same,cytotoxicity of the compound alone,"human HepG2 cells [6]; 60 μM alone, HepG2",no cytotoxicity
same,cell viability on co-treatment with AFB1,"human HepG2 cells [6]; 60 μM, 2 μM AFB1, HepG2, 72 h, MTT",more than 90%
same,chemoprotection against AFB1 induced cytotoxicity,human HepG2 cells [6]; 40 and 60 μM,effective chemoprotection
same,inhibition of the metabolic conversion of AFB1 in liver microsomes,[1]; [9],inhibition of both GSH-AFB1 adducts and aflatoxin Q1
same,stability under aqueous conditions and in the metabolic study of liver microsomes,"[1]; liver microsomes, HPLC",no degradation
"O=c1cc(-c2ccccc2)oc2c1ccc1ccccc12 [α-NF, α-naphthoflavone, reference compound]",decrease of aflatoxin Q1 versus no α-NF,[1]; 50 μM,6 fold
same,increase of the amount of GSH-AFB1 adducts versus no α-NF,[1]; 50 μM,2.3 folds
2-hydroxy-cis-terpenone [HCT],effect on TCDD induced P450-1 activity,P450 1A/1B,inhibited
same,stability in the phosphate buffer and in the AFB1 metabolic study,"[2]; 100 mM phosphate buffer pH 7.4, 37° C.",slow degradation
same,stability of stock solutions,"[2]; acetonitrile, −15° C., several weeks",no significant degradation
same,decrease of P450 3A4 activity,[3]; 10 μM,~30%
same,decrease of P450 3A4 activity,[3]; 20 μM,~50%
same,decrease of P450 3A4 activity,[3]; 40 μM,~70%
same,IC50,"[3]; purified P450 3A4, read-out: IC50, inhibition of purified P450 3A4 enzyme activity",20 µM
same,effect of co-treatment on AFB1 induced cytotoxicity including DNA damage and cell death,human HepG2 cells [7],reduced AFB1 induced cytotoxicity
same,inhibition of the metabolic conversion of AFB1 in liver microsomes,[1]; [9],effective inhibition
same,inhibition of the α-NF stimulated production of exo-AFB1-epoxide,"[1]; 40 μM, with 50 μM α-NF",consistently inhibited
same,inhibition of the carcinogenic conversion of AFB1 with liver microsomes,"[1]; 10, 20, 40 μM",inhibited by HCT in a concentration dependent manner
"CC(=O)N1CCN(c2ccc(OCC3COC(Cn4ccnc4)(c4ccc(Cl)cc4Cl)O3)cc2)CC1 (stereo not shown) [ketoconazole, reference compound]","inhibition at 8 min, 1 μM",CYP3A4 (P450 3A4),> 90%
same,"cell mortality, compound alone","human HepG2 cells [6]; 20 μM alone, HepG2",20%
same,chemoprotection against AFB1 induced cytotoxicity,human HepG2 cells [6]; 10 and 20 μM,observed
same,inhibition of the α-NF stimulated production of exo-AFB1-epoxide,[1],consistently inhibited
same,inhibition of the metabolism of AFB1 in liver microsomes,"[1]; 1 μM, 50 μM AFB1, NADPH regenerating system, 37° C. 90 min",same extent as 40 μM HCT
